Publication PMC11324666, “Two novel in vitro assays to screen chemicals for their capacity to inhibit thyroid hormone transmembrane transporter proteins OATP1C1 and OAT4” (Archives of Toxicology, 2024)
Read-outs that look alike come from different tables or passages of the source.

Legend:
[1] = tested on: CHO-K1 OATP1C1 cells; settings: for Cytotoxicity IC10: concentration that inhibits cell viability by 10%, CHO-K1 OATP1C1 cells, 30 min exposure
Method: (§1) Cell viability was assessed through the quantitation of ATP present in cells using the commercially available CellTiter-Glo® luminescent cell viability assay and performed according to the manufacturer’s instruction (Promega, Leiden, the Netherlands). Briefly, cells were seeded as described earlier in opaque-walled clear-bottom 96 well plates. On the day of the experiment, each well was washed with 200 µL phosphate buffered saline (PBS) and exposed to 80 µL of uptake buffer, 10 µL of a tenfold stock of test compound solved in uptake buffer or control and 10 µL of T4 (final concentration 10 nM). 0.1% DMSO was used as a solvent control, while 10% DMSO was used as a positive control. After exposure for the indicated times similar to THTMT TH uptake assay, cells were immediately washed with ice-cold PBS + 0.1%BSA and exposed to 100 µL of the CellTiter-Glo® Reagent. Plates were then shaken on an orbital shaker for 2 min and left to incubate at room temperature for 10 min. Luminescence was measured on a BioTek Cytation 5 microplate reader. […] Each individual experiment was repeated at least twice and contained three technical replicates of each control and concentration tested.
Figure S1. […] Blue dots indicate the plate medians from three or four independent experiments, all control and chemical concentrations were tested in triplicates per plate.

[2] = target: T1, OAT4 (Homo sapiens, UniProt Q9NSA0); assay: MDCK-OAT4 TH uptake assay with 125I-T4 tracer; format: cell-based; settings: for T4 uptake inhibition BMC20 (M), [CI]: concentration that inhibits 125I-T4 uptake by 20%, brackets = 95% CI; for T4 uptake inhibition BMC20 (M), [CI] / 125I-T4 uptake compared to the vehicle control (range finding): 10 nM T4, 20 min; for 125I-T4 uptake compared to the vehicle control (range finding): single concentration 10 or 100 µM, below 80% = positive hit
T1 construct: V5 (from pLenti6/V5-DEST); expressed in transfected cells; host or cells: MDCK-1 (lentiviral transduction, blasticidin selection)
T1 sequence (Q9NSA0 1-550): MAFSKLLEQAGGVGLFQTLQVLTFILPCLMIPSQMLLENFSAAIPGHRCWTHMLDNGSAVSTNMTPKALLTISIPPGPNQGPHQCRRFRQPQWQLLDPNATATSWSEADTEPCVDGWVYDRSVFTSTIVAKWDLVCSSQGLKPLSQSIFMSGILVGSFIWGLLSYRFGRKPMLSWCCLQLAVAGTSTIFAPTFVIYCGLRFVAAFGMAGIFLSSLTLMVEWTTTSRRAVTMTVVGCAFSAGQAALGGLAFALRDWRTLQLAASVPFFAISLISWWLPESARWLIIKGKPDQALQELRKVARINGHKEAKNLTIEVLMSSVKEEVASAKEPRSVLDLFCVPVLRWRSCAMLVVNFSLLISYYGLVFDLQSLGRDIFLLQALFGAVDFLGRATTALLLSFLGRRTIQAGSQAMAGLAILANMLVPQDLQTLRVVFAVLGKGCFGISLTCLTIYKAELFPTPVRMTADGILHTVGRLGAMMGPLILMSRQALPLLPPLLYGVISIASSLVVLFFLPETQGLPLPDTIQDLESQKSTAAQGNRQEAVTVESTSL
Method: Subsequently OAT4 in pENTR™/D-TOPO® Vector was shuffled into the pLenti6/V5-DEST vector (Thermo Fisher) using Gateway™ LR Clonase™ II Enzyme mix (Thermo Fisher) according to the manufacture’s protocol.
To generate an OAT4 stable cell line, MDCK-1 cells were plated in 12-well plates with full growth medium and transduced with fresh viral supernatants in the absence of antibiotics in medium. After 2 days, MDCK-1 cells transduced with OAT4 (MDCK-OAT4) or empty vector (MDCK-DEST) were selected in full growth medium supplemented with 2 µg/mL blasticidin and further maintained under blasticidin selection.
MDCK-OAT4 and MDCK-DEST cells were cultured in DMEM:F12 (L-glutamine, 15 mM HEPES) (Gibco) supplemented with (100 µg/mL penicillin + 100 µg/mL streptomycin), 10% fetal calf serum (Gibco) and 2 µg/mL blasticidin (Sigma). CHO-K1 OATP1C1 or WT cells were cultured in F12 nutrient mix (Gibco) supplemented with (100 µg/mL penicillin + 100 µg/mL streptomycin), 10% fetal calf serum (Gibco) and […] G418 (Sigma). All cell cultures were incubated at 37 °C with 5% CO2 saturation until 80% confluency. MDCK-OAT4 and MDCK-DEST cells were seeded in 96 wells plate at a density of 4 × 10^5 cells in 100 µL medium per well and incubated for 24 h before the start of the MDCK-OAT4 TH uptake assay. CHO-K1 OATP1C1 and WT cells were seeded in 96 wells plate at a density of 3 × 10^5 cells in 100 µL medium per well 72 h before the CHO-K1 OATP1C1 TH uptake assay. Medium from CHO-K1 OATP1C1 or WT assay plates was changed to serum-free F12 medium containing 5 mM sodium-butyrate 24 h before start of the CHO-K1 OATP1C1 TH uptake assay to increase transfected expression of SV-40 promotor plasmids.
Subsequently 10 µL of a tenfold stock of test compound in uptake buffer (solvent concentration 1% v/v) was added to each well. […] Cells were exposed at 37 °C for 20 min (MDCK-OAT4) or 30 min (CHO-K1 OATP1C1), unless stated differently. After exposure, cells were immediately washed with ice-cold PBS supplemented with 0.1% bovine serum albumin (BSA). Subsequently, cells were lysed in 50 µL of 0.1 M NaOH under continuous shaking at room temperature. After 20 min, cell lysates were manually transferred into separate 5 mL polypropylene tubes. One tube was also prepared with 10 µL of the T4 tracer solution. Radioactivity was measured in a Wizard^2 gamma counter (Perkin Elmer).
For the CHO-K1 OATP1C1 TH uptake assay total of 29 chemicals (Table 1) were selected for the EDC screening based on available literature data. […] The same chemicals were selected for the MDCK-OAT4 TH uptake assay, with the exception of BPF, VRP and TCS. […] The THTMT TH uptake assay was then performed as described earlier. […] A concentration of 100 µM ICG was used as a reference chemical for OATP1C1 and 100 µM LESI for OAT4. At least three independent experiments were performed for each chemical. Each individual experiment contained three technical replicates of each control and concentration tested.
Raw values were normalized to the total amount of radioactivity in the T4 tracer solution. These values were expressed as a percentage of total radioactivity added (or uptake percentage) and used for all further data analysis. Statistically significant differences between the T4 uptake of transfected and wild type cells, in the presence or absence of inhibitor, were determined by two-way ANOVA (α = 5%, two-sided). […] In brief, uptake values were normalized to the median response of the vehicle and positive controls for each plate. […] Statistical analysis were performed using GraphPad Prism version 8 for Windows (GraphPad Software, San Diego, California USA) and SAS 9.3 (SAS Institute, Cary NC).

[3] = tested on: MDCK-OAT4 cells; assay: CellTiter-Glo luminescent cell viability assay in MDCK-OAT4 cells; settings: for Cytotoxicity IC10: concentration that inhibits cell viability by 10%, MDCK-OAT4 cells, 20 min exposure
Method: as §1
Figure S2. […] Blue dots indicate the plate medians from three or four independent experiments, all control and chemical concentrations were tested in triplicates per plate. The black line indicates the best-fit concentrations response curve, the dotted line the corresponding 95% confidence interval.

Row | Structure (SMILES) | Cytotoxicity IC10 [1] [µM] | T4 uptake inhibition BMC20 (M), [CI] [2] | Cytotoxicity IC10 [3] [µM] | cytotoxic effects ([3]; at concentrations of the uptake assay, Figure S2) | 125I-T4 uptake compared to the vehicle control (range finding) [2] | cytotoxic effects ([1]; at concentrations of the uptake assay, Figure S1) | cytotoxic effects [3] | BMC20 (20% reduction in T4 uptake) [2] [µM]
1 | O=c1c(O)c(-c2ccc(O)c(O)c2)oc2cc(O)cc(O)c12 [Quercetin] | > 100 | 1.23E−05 [4.77E−06; 3.16E−05] M | > 100 | – | – | – | – | –
2 | CCCN(CCC)S(=O)(=O)c1ccc(C(=O)O)cc1 [Probenecid, reference compound] | > 100 | 3.65E−05 [2.69E−05; 4.61E−05] M | – | – | – | – | – | –
3 | Oc1c(Cl)c(Cl)c(Cl)c(Cl)c1Cl [Pentachlorophenol] | > 18.5 | 2.65E−05 [2.17E−05; 3.23E−05] M | 1.14 | cytotoxic | – | – | – | –
4 | O=S(=O)(O)C(F)(F)C(F)(F)C(F)(F)C(F)(F)C(F)(F)C(F)(F)C(F)(F)C(F)(F)F [Perfluorooctanesulfonic acid] | > 100 | 1.44E−06 [4.08E−07; 5.05E−06] M | > 100 | – | below 80% | – | – | –
5 | O=C(O)C(F)(F)C(F)(F)C(F)(F)C(F)(F)C(F)(F)C(F)(F)C(F)(F)F [Perfluorooctanoic acid] | > 100 | 1.38E−06 [4.27E−07; 4.44E−06] M | > 100 | – | – | – | – | –
6 | COc1cc([C@@H]2Oc3c(O)cc([C@H]4Oc5cc(O)cc(O)c5C(=O)[C@@H]4O)cc3[C@H]2CO)ccc1O [Silychristin, reference compound] | > 10 | – | – | – | ≥ 80% | – | – | –
7 | CO[C@H]1/C=C/O[C@@]2(C)Oc3c(C)c(O)c4c(O)c(c(/C=N/N5CCN(C)CC5)c(O)c4c3C2=O)NC(=O)/C(C)=C\C=C\[C@H](C)[C@H](O)[C@@H](C)[C@@H](O)[C@@H](C)[C@H](OC(C)=O)[C@@H]1C [Rifampicin, reference compound] | > 100 | 1.02E−05 [4.85E−06; 2.14E−05] M | > 100 | – | – | – | – | –
8 | O=S(=O)([O-])c1cc(S(=O)(=O)O)ccc1C1=c2cc3c4c(c2Oc2c1cc1c5c2CCCN5CCC1)CCC[N+]=4CCC3 [Sulforhodamine 101, reference compound] | > 10 | – | – | – | ≥ 80% | – | – | –
9 | Oc1ccc(Cc2ccc(O)cc2)cc1 [Bisphenol F, Bisphenol-F] | > 100 | – | – | – | below 80% | – | – | –
10 | Oc1ccc(C(c2ccc(O)cc2)(C(F)(F)F)C(F)(F)F)cc1 [Bisphenol AF, Bisphenol-AF] | 0.909 | 5.39E−06 [1.65E−06; 1.76E−05] M | – | – | – | confounded by cytotoxic effects | cytotoxic | –
11 | CC(C)(c1cc(Br)c(O)c(Br)c1)c1cc(Br)c(O)c(Br)c1 [Tetrabromobisphenol A, Tetrabromobisphenol-A] | > 0.3 | 6.49E−07 [4.32E−07; 9.74E−07] M | > 10 | – | below 80% | – | – | –
12 | O=C1OC(c2ccc(O)c(S(=O)(=O)O)c2)(c2ccc(O)c(S(=O)(=O)O)c2)c2c(Br)c(Br)c(Br)c(Br)c21 [Bromosulfophthalein, reference compound] | > 100 | 7.25E−08 [3.85E−08; 1.36E−07] M | > 100 | – | below 80% | – | – | 0.072
13 | CC1(C)C(/C=C/C=C/C=C/C=C2\N(CCCCS(=O)(=O)O)c3ccc4ccccc4c3C2(C)C)=[N+](CCCCS(=O)(=O)[O-])c2ccc3ccccc3c21 [Indocyanine green, reference compound] | > 100 | 1.68E−05 [1.20E−05; 2.33E−05] M | > 10 | – | – | – | – | –
